Here are results for one substance from patent US20180289692A1, “TLR MODULATORS AND METHODS OF USE” (CELGENE CORPORATION, priority 2015, published 2018).

Oligonucleotides are written 5' to 3', each unit as a sugar letter and its base; * is a phosphorothioate linkage, no mark a phosphodiester; rarer units and linkages stand in square brackets, end groups in braces. Plain capitals give the bases only. d = 2'-deoxy (DNA)

What all share (type): cell-based
The test system of data set [1] is human PBMCs. The data set is described as follows: Cytokine production by human PBMCs treated with ODNs, MagPix Multi-Plex. On the set-up: key to IL-6, IL-12: (↑) indicates a weak but detectable activity; (↑↑) and (↑↑↑) indicate different levels of moderate activities; (↑↑) and (↑↑↑) indicate different levels of moderate activities; (↑↑↑↑) indicates a strong activity; (−) indicates no detectable activity. To be noted: for IFN-γ / IL-1β / IL-6 / IL-10 / IL-12p40 / IP10 / TNF-α: human PBMC, 24 hrs. Here is the method:
PBMC from 3 donors were isolated from Buffy Coat (Blood Center of NY). The cells were washed with PBS and re-suspended in RPMI-1640 Media with 5% Human AB Serum, 1% Pen/Strep and 2 mM L-glutamine. The cells were then plated in 96-well plates at 250,000 cells/well. […] After 24 hrs, the supernatant was harvested and tested for cytokine production using MagPix Multi-Plex Technology. The following cytokines were tested: IL-6, IL-10, IL-12p40, IFN-α, IFN-γ, IP-10, IL-1β and TNF-α.

For data set [2], the target named is T1, TLR9 (Homo sapiens, UniProt Q9NR96).
T1 construct: expressed in transfected cells; host or cells: TLR9 expressing HEK293 reporter cells with a human NF-κB reporter construct
T1 sequence (Q9NR96 26-1032): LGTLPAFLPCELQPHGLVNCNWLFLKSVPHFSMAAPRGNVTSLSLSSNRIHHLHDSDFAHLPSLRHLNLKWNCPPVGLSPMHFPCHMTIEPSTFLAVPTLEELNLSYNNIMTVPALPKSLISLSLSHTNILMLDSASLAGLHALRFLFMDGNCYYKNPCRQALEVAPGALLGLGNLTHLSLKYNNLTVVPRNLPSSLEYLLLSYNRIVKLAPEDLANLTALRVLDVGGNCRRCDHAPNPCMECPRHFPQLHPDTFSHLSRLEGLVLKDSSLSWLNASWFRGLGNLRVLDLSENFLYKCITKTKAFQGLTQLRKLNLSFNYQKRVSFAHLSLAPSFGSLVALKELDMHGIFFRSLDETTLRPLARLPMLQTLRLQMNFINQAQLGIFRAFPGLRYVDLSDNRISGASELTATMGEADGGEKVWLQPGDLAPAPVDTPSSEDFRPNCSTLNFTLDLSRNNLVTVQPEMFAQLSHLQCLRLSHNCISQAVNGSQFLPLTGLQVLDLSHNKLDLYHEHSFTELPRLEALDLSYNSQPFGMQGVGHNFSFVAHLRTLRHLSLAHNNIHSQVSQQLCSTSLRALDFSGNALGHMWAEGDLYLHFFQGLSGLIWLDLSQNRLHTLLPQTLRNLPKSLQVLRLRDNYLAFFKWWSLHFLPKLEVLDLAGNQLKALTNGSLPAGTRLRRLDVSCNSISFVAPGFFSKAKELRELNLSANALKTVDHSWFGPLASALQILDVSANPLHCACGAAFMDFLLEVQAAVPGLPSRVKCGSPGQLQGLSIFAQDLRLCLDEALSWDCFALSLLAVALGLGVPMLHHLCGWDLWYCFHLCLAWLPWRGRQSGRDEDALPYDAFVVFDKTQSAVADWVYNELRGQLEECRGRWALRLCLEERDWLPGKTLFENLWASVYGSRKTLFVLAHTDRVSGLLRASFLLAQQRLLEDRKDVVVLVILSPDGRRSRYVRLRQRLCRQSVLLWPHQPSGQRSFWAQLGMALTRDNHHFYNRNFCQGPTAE
Briefly: NF-κB reporter gene in recombinant TLR9-expressing HEK293 cells. Here is the method: FIGS. 16A-B show results of experiments in which recombinant TLR-expressing HEK293 cells carrying an NF-κB reporter gene were incubated with COMPOUND(I), ODN150, ODN2006, or ODN7040 for 48 hours at the indicated concentrations.
For orientation: A reporter such as luciferase makes a cellular process visible.

Data set [3] relates to mouse macrophages. Briefly: TNFα and IL-10 production in mouse macrophages (Raw Blue cells), MagPix. To be noted: 24 hrs. Here is the method:
Mouse Raw Blue Reporter Cells (Invivogen) were plated in 96-well plates at 50,000 cells/well in DMEM Media supplemented with 10% FBS, 2 mM L-glutamine, 1% Pen/Strep, […] Normacin. […] The supernatant was harvested and tested for TNFα and IL-10 production using MagPix Multi-Plex technology.

The test system of data set [4] is canonical NF-κB promoter reporter. The data set is described as follows: Mouse Raw Blue Reporter Cells, SEAP reporter driven by canonical NF-κB promoter (FIG. 11). To be noted: mouse macrophages, 24 hrs. Here is the method: Mouse Raw Blue Reporter Cells (Invivogen), containing a secreted embryonic alkaline phosphatase (SEAP) reporter gene driven by canonical NF-κB promoter, were plated in 96-well plates at 50,000 cells/well in DMEM Media supplemented with 10% FBS, 2 mM L-glutamine, 1% Pen/Strep, […] Normacin. […] The supernatant was harvested and tested for SEAP production by measuring OD at 630 nm.

In data set [5] the test system is human PBMCs. Briefly: IL-1β secretion from human PBMCs by ELISA (inflammasome activation). To be noted: 24 hours, FIG. 15. For orientation: In an ELISA, binding on a coated surface is turned into a signal by an enzyme label.
Where [6] appears, read: PBMC, relative strength, Table 6.

Turning to “ODN150: 5′-G*G*A*ACAGTTCGTCCAT*G*G*C-3′, PO except * = PS; antisense to p65 of NF-kB mRNA; tested clinically for ulcerative colitis (DNA dG*dG*dA*dAdCdAdGdTdTdCdGdTdCdCdAdT*dG*dG*dC)”, in data set [1] (setting [6]), the “IL-6, IL-12” value was “↑” and the “TNFα, IFNγ” value is recorded as “—/↑”. Also, in data set [1] (any tested concentration between 0.01 μM and 10 μM, FIG. 25), the “IFNα secretion from PBMCs” value is recorded as “not found to induce”. In data set [1] (high-dose ODN 10 μM), this substance yielded an IFN-γ of 0.2 pg/mL, an IL-1β of 0.6 pg/mL, an IL-6 of 11.8 fold change and an IL-10 of 1.6 fold change. In data set [1] (high-dose ODN 10 μM), this substance returned an IL-12p40 of 0 pg/mL, an IP10 of 8.1 fold change and a TNF-α of 2 fold change. In data set [1] (low-dose ODN 0.1 μM), this substance came in with an IFN-γ of 0.2 pg/mL, an IL-1β of 0.2 pg/mL, an IL-6 of 1.2 fold change and an IL-10 of 0.9 fold change. In data set [1] (low-dose ODN 0.1 μM), this substance returned an IL-12p40 of 0 pg/mL, an IP10 of 1.5 fold change and a TNF-α of 1.2 fold change. Also, in data set [2] (Reporter Cell, relative strength, Table 6), the “TLR pathway activation (NF-κB)” value was “↑ ↑”. Also, the “NF-κB reporter gene activation” value in data set [2] (TLR9-expressing HEK293 cells, 48 hours, FIGS. 16A-B) is reported as “concentration-dependent NF-kB induction”. The TNFα protein expression result in data set [3] (FIG. 12, COMPOUND (I) up to 10 μM) is “induce”. Besides, in data set [3] (FIG. 13, COMPOUND (I) up to 10 μM), the IL-10 protein expression entry is reported as “induce”. In addition, the “concentration from which the NF-κB reporter is activated” value in data set [4] is 10 µM. The “activation of canonical NF-κB reporter” value in data set [4] (SEAP, COMPOUND (I) up to 10 μM) is listed as “activate”. Besides, the IL-1β induction entry in data set [5] is on record as “did not induce”.
